pKi: −log10 of the molar value.
Target: T1, glucocorticoid receptor (GR) (Homo sapiens, UniProt P04150)
T1 construct: endogenous in cells; host or cells: HeLa (ATCC) cell lysate supernatant
T1 sequence (P04150 1-777): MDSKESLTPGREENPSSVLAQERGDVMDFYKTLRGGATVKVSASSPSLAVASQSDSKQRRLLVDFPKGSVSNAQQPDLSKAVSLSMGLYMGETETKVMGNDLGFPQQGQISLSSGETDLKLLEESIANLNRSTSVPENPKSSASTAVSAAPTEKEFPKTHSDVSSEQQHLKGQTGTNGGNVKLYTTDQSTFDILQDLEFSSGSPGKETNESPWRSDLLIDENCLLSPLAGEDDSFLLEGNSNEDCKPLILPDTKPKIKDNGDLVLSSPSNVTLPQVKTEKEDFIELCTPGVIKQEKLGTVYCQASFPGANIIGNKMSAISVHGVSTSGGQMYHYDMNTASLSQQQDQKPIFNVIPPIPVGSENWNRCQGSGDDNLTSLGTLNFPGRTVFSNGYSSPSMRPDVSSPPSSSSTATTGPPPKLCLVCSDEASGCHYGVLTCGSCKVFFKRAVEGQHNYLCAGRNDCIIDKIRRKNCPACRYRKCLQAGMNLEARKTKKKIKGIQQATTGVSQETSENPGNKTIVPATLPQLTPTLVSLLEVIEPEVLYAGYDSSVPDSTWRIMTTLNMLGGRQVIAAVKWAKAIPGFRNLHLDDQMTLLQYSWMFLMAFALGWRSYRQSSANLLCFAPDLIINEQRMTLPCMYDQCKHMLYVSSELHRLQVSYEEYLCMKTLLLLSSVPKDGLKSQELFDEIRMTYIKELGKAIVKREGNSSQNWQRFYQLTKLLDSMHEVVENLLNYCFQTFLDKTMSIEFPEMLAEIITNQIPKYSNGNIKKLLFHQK
Assay: Ligand binding assay (GR BIND), 3H-dexamethasone displacement, HeLa cell lysate
Protocol: Binding Buffer: TEGM (10 mM Tris-HCl, 1 mM EDTA, 10% glycerol, 1 mM beta-mercaptoethanol, 10 mM Sodium Molybdate, pH 7.2)
50% HAP Slurry: Calbiochem Hydroxylapatite, Fast Flow, in 10 mM Tris, pH 8.0 and 1 mM EDTA.
Wash Buffer: 40 mM Tris, pH7.5, 100 mM KCl, 1 mM EDTA and 1 mM EGTA.
Dexmethasone-methyl-^3H, (DEX*); (Amersham cat# TRK645)
Dexamethasone (DEX) (Sigma, cat# D1756):
Phenol red-free Trypsin-EDTA is diluted in the same PBS 1:10. The cell layers are rinsed with 1× Trypsin, extra Trypsin is poured out, and the cell layers are incubated at 37° C. for ˜2 min. The flask is tapped and checked for signs of cell detachment. Once the cells begin to slide off the flask, the complete media is added. The cells are counted at this point, then diluted to the appropriate concentration and split into flasks or dishes for further culturing (Usually 1:3 to 1:6 dilution).
Preparation of Hela Cell Lysate
The cell pellet is washed twice with TEGM (10 mM Tris-HCl, 1 mM EDTA, 10% glycerol, 1 mM beta-mercaptoethanol, 10 mM Sodium Molybdate, pH 7.2). After the final wash, the cells are resuspended in TEGM at a concentration of 10^7 cells/mL. The cell suspension is snap frozen in liquid nitrogen or ethanol/dry ice bath and transferred to −80° C. freezer on dry ice. Before setting up the binding assay, the frozen samples are left on ice-water to just thaw (˜1 hr). Then the samples are centrifuged at 12,500 g to 20,000 g for 30 min at 4° C. The supernatant is used to set-up assay right away. If using 50 μL of supernatant, the test compound can be prepared in 50 μL of the TEGM buffer.
Procedure for Multiple Compound Screening
1×TEGM buffer is prepared, and the isotope-containing assay mixture is prepared in the following order: EtOH (2% final concentration in reaction), 3H-DEX (Amersham Biosciences) and 1×TEGM. [e.g. For 100 samples, 200 μL (100×2) of EtOH+4.25 μL of 1:10 ^3H-Dex stock+2300 μL (100×23) 1×TEGM]. The compound is serially diluted, e.g., if starting final conc. is 1 μM, and the compound is in 25 μL of solution, for duplicate samples, 75 μL of 4×1 μM solution is made and 3 μL of 100 μM is added to 72 μL of buffer, and 1:5 serial dilution.
25 μL of ^3H-DEX (6 nM) trace and 25 μL compound solution are first mixed together, followed by addition of 50 μL receptor solution. The reaction is gently mixed, spun briefly at about 200 rpm and incubated at 4° C. overnight. 100 μL of 50% HAP slurry is prepared and added to the incubated reaction which is then vortexed and incubated on ice for 5 to 10 minutes. The reaction mixture is vortexed twice more to resuspend HAP while incubating reaction. The samples in 96-well format are then washed in wash buffer using The FilterMate™ Universal Harvester plate washer (Packard). The washing process transfers HAP pellet containing ligand-bound expressed receptor to Unifilter-96 GF/B filter plate (Packard). The HAP pellet on the filter plate is incubated with 50 μL of MICROSCINT (Packard) scintillant for 30 minutes before being counted on the TopCount microscintillation counter (Packard). IC50s are calculated using DEX as a reference.

[1] = Table 1, HeLa cell lysate, 3H-DEX
[2] = Table 2, prior-art comparison compounds

Row | pKi [1] | pKi [2] | SMILES
1 | 7.96 |  | CC(O)(C(N)=O)c1ccccc1CC[C@]1(O)CCC2=Cc3c(cnn3-c3ccc(F)cc3)C[C@@]21C (single isomer, unassigned) [Example 150]
2 | 8.74 |  | CC(C(N)=O)c1ccccc1CC[C@]1(O)CCC2=Cc3c(cnn3-c3ccc(F)cc3)C[C@@]21C (single isomer, unassigned) [Example 196]
3 | 8.61 |  | C[C@]12Cc3cnn(-c4ccc(F)cc4)c3C=C1CC[C@@]2(O)CCc1ccccc1C(F)C(N)=O (single isomer, unassigned) [Example 198]
4 |  | 8.28 | C[C@]12Cc3cnn(-c4ccc(F)cc4)c3C=C1CC[C@@]2(O)CCc1ccccc1 [Example 2 WO 2004/075840 A2, reference compound]
5 | 8.68 |  | CCNC(=O)c1ccccc1CC[C@]1(O)CCC2=Cc3c(cnn3-c3ccc(F)cc3)C[C@@]21C [Example 2, N-ethyl-2-{2-[(4αS,5R)-1-(4-fluorophenyl)-5-hydroxy-4α-methyl-1,4,4α,5,6,7-hexahydrocyclopenta[f]indazol-5-yl]ethyl}benzamide]
6 | 9.36 |  | C[C@]12Cc3cnn(-c4ccc(F)cc4)c3C=C1CC[C@@]2(O)CCc1ccccc1CNS(=O)(=O)C1CC1 [Example 5, N-(2-{2-[(4αS,5R)-1-(4-fluorophenyl)-5-hydroxy-4α-methyl-1,4,4α,5,6,7-hexahydrocyclopenta[f]indazol-5-yl]ethyl}benzyl)cyclopropanesulfonamide]
7 | 8.63 |  | C[C@]12Cc3cnn(-c4ccc(F)cc4)c3C=C1CC[C@@]2(O)CCc1ccccc1N1CCC1=O [Example 11, 1-(2-{2-[(4αS,5R)-1-(4-fluorophenyl)-5-hydroxy-4α-methyl-1,4,4α,5,6,7-hexahydrocyclopenta[f]indazol-5-yl]ethyl}phenyl)azetidin-2-one]
8 | 8.20 |  | CC(=O)Nc1ccccc1CC[C@]1(O)CCC2=Cc3c(cnn3-c3ccc(F)cc3)C[C@@]21C [Example 14, N-(2-{2-[(4αS,5R)-1-(4-fluorophenyl)-5-hydroxy-4α-methyl-1,4,4α,5,6,7-hexahydrocyclopenta[f]indazol-5-yl]ethyl}phenyl)acetamide]
9 | 8.93 |  | C[C@]12Cc3cnn(-c4ccc(F)cc4)c3C=C1CC[C@@]2(O)CCc1ccccc1NS(=O)(=O)C1CC1 [Example 15, N-(2-{2-[(4αS,5R)-1-(4-fluorophenyl)-5-hydroxy-4α-methyl-1,4,4α,5,6,7-hexahydrocyclopenta[f]indazol-5-yl]ethyl}phenyl)cyclopropanesulfonamide]
10 | 8.95 |  | C[C@]12Cc3cnn(-c4ccc(F)cc4)c3C=C1CC[C@@]2(O)CCc1ccccc1S(C)(=O)=O [Example 19, (4αS,5R)-1-(4-fluorophenyl)-4α-methyl-5-{2-[2-(methylsulfonyl)phenyl]ethyl}-1,4,4α,5,6,7-hexahydrocyclopenta[f]indazol-5-ol]
11 |  | 8.90 | C[C@]12Cc3cnn(-c4ccc(F)cc4)c3C=C1CCC[C@@H]2[C@@H](O)Cc1ccccc1 [Example 22 WO 03/086294 A2, reference compound]
12 | 8.29 |  | CNC(=O)Cc1ccccc1CC[C@]1(O)CCC2=Cc3c(cnn3-c3ccc(F)cc3)C[C@@]21C [Example 23, 2-(2-{2-[(4αS,5R)-1-(4-fluorophenyl)-5-hydroxy-4α-methyl-1,4,4α,5,6,7-hexahydrocyclopenta[f]indazol-5-yl]ethyl}phenyl)-N-methylacetamide]
13 | 8.86 |  | COC(=O)C1(NC(=O)c2ccccc2CC[C@]2(O)CCC3=Cc4c(cnn4-c4ccc(F)cc4)C[C@@]32C)CC1 [Example 26, methyl 1-[(2-{2-[(4αS,5R)-1-(4-fluorophenyl)-5-hydroxy-4α-methyl-1,4,4α,5,6,7-hexahydrocyclopenta[f]indazol-5-yl]ethyl}benzoyl)amino]cyclopropanecarboxylate]
14 | 8.45 |  | CC1(NC(=O)c2ccccc2CC[C@]2(O)CCC3=Cc4c(cnn4-c4ccc(F)cc4)C[C@@]32C)CC1 [Example 28, 2-{2-[(4αS,5R)-1-(4-fluorophenyl)-5-hydroxy-4α-methyl-1,4,4α,5,6,7-hexahydrocyclopenta[f]indazol-5-yl]ethyl}-N-(1-methylcyclopropyl)benzamide]

Reference: patent US8119681B2, “2-[1-phenyl-5-hydroxy or methoxy-4alpha-methyl-hexahydrocyclopenta [ƒ]indazole-5-YL]ethyl phenyl derivatives as glucocorticoid receptor ligands” (Merck Sharp & Dohme Corp., priority 2006, dated 2012)
